The text below walks through data of PMC8481799, “Lichen Polyphenolic Compounds for the Eradication of Candida albicans Biofilms” (Frontiers in Cellular and Infection Microbiology, 2021).

Molecules are shown by their SMILES. In brackets after ≈: the same amount, converted by molar mass. Several values for one entry are separate records, joined by “and”; a condition that tells them apart may be missing. Equal entries are not always repeated. Where two headings read alike, the source gives them in different places.

The test system of data set [1] is Candida albicans biofilms on the maturation phase. As to the kind of experiment: Anti-maturation test (XTT), compounds added after 2 h adherence. In kind it is cell-based, Candida albicans ATCC 28367. To be noted: Candida albicans. How it is done:
(§1) The anti-maturation and/or anti-biofilm activities of lichen compounds were assessed as previously described ([Millot et al., 2017]). Briefly, C. albicans (ATCC® 28367™) cultures were prepared at a final concentration of 1 × 10^7 cells/ml in yeast nitrogen base medium (Difco, Detroit, MI), supplemented with 50 mM glucose (Sigma, St Louis, MO) (YNB-Glc) from a preculture incubated overnight at 37°C without shaking.
(§2) A total of 200 µl of yeast culture was added to each well of untreated 96-well tissue culture plates. The plates were then incubated at 37°C for 2 h for the anti-maturation test and for 24 h for the anti-biofilm test. After aspiration of spent media and free-floating microorganisms, 250 μl per well of YNB-Glucose and 50 μl lichen compound samples obtained by serial twofold dilutions of each stock solution over the final range 200 to 0.097 μg/ml or 200 to 6.25 μg/ml were added to wells. Controls were also present: untreated yeasts (negative control) and yeasts treated with 2% DMSO. After 24 and/or 48 h of incubation at 37°C followed by aspiration of spent media and free-floating microorganisms, the wells were washed with phosphate-buffered saline (PBS) and observed under an inverted optical microscope (IX51® inverted microscope, Olympus). Biofilms were quantified using a metabolic assay based on the reduction of a tetrazolium salt (XTT) and absorbance measurements at 492 nm (microplate reader LP400; Sanofi Diagnostics Pasteur) ([Cocuaud, 2005]; [Dalleau et al., 2008]). The percent inhibition was determined from the absorbance values compared to the mean absorbance value obtained for untreated wells (100%).
(§3) Concentrations of lichen products inhibiting 50% of biofilms were determined for each tested sample by constructing a dose–response curve and selecting the closest tested concentration value above or equal to 50% inhibition. All anti-maturation and anti-biofilm tests were performed at least in triplicate in at least two separate experiments. The lichen compounds with MMIC50 or/and MBIC50 less than 100 μg/ml were considered as potentially useful.
(§4) Anti-maturation and anti-biofilm tests were performed with C. albicans ATCC® 28367™, as previously described, in 96-well microplates with evernic acid alone, cyclodextrin alone, and evernic acid included in cyclodextrin at over 50 to 1.5 µM final range of evernic acid (serial twofold dilution).

On the set-up of data set [2]: method as in Shcherbakova et al. (2021). To be noted: ref Shcherbakova et al. (2021); cited from earlier work.
The subject of the next data set is red blood cells. The data set is described as follows: Hemolysis test. The class given is cell-based. To be noted: at 100 µg/ml, 1 h. The protocol: Then, 480 µl of each dilution was added to 20 µl of healthy red blood cells (Poitiers University Hospital, Hematology Department) in microtubes (final hematocrit = 4%). Some microtubes were reserved for controls: untreated red blood cells (negative control), cells treated with sterile distilled water (positive control = 100% hemolysis), and cells treated with 1% DMSO. After 1 h of incubation at 37°C, the tubes were centrifuged for 10 s at 14,000 g (A14 centrifuge Jouan) twice, and 200 µl of each supernatant was transferred into 96-well microtiter plates for colorimetric measurements at 450 nm (microplate reader LP400; Sanofi Diagnostics Pasteur) in order to determine the hemolysis percentages of each compound ([Evans et al., 2013]). All tests were performed in duplicate (at least two separate experiments).

Data set [3] concerns Candida albicans preformed 24-h-old biofilm. As to the kind of experiment: Anti-biofilm test (XTT) on preformed 24-h-old biofilm. The class given is cell-based, Candida albicans ATCC 28367. How it is done:
as §1, §2, §3, §4

Data set [4] deals with HeLa human epithelial cervix cells. As to the kind of experiment: Growth inhibition of HeLa cells (MTT, 72 h). The following applies: for Growth inhibition of HeLa cells (% inhibition): 72 h. The class given is cell-based. How it is done: HeLa human epithelial cervix cells were grown as monolayers at 37°C in a 5% CO2–95% air humidified atmosphere in RPMI supplemented with 10% FBS and […] gentamycin and streptomycin. Cells (2,000 cells/well) were seeded into each well of 96-well plates. […] The final DMSO concentration was less than 1% and tested as a negative control. Cell viability at 72 h was studied using the MTT assay. Then, 5 µl of MTT (10 mg/ml) was added to each well, and the plates were incubated for 4 h. The medium was then removed by aspiration, and 200 µl DMSO was added to each well. Proliferation was determined spectrophotometrically by measuring the absorbance at 540 nm. The percent of growth inhibition (%GI) was calculated as follows: %GI = [(DO (ʎ540 nm) control - DO (ʎ540 nm) treated)/DO (ʎ540 nm) control] * 100. All experiments were performed in duplicate with at least two replicate experiments.

Where [5] appears, read: 24 h of treatment, read-out: Anti-maturation activity MMIC50.
Where [6] appears, read: 48 h of treatment, read-out: Anti-maturation activity MMIC50.
The mark [7] stands for this setting: Candida albicans, 24 h, 24 h of treatment, 24-h-old biofilm, read-out: Anti-biofilm activity MBIC50.
The mark [8] stands for this setting: Candida albicans, 48 h, 48 h of treatment, 24-h-old biofilm, read-out: Anti-biofilm activity MBIC50.

As to `COc1cc(C)c(C(=O)Oc2cc(C)c(C(=O)O)c(O)c2)c(O)c1` [Compound 1, Evernic acid], the IC50 is 100 µg/mL (≈ 301 µM) in data set [1] (setting [5]); 6.25 µg/mL and 18 µM in data set [1] (setting [6]); < 12.5 µM in data set [3] (48 h of treatment, 24-h-old biofilm, listed as Evernic acid, read-out: Anti-biofilm activity MBIC50); 37 µM in data set [3] (48 h of treatment, 24-h-old biofilm, listed as evernic acid, read-out: Anti-biofilm activity MBIC50); 37.5 µM in data set [3] (48 h of treatment, 24-h-old biofilm, read-out: Anti-biofilm activity MBIC50); 200 µg/mL in data set [3] (setting [7]). Also, the IC50 is ≤ 12.5 µg/mL in data set [3] (setting [8]) and 12.5 µM in data set [3] (Candida albicans, 48 h, cyclodextrin experiment, 1.5 to 50 µM, 48 h of contact, read-out: Concentration giving 50% inhibition of the biofilm). The Predicted cytotoxicity risks result in data set [2] is “absence of mutagenic, tumorigenic, reproductive, and irritant effects”. The “Hemolytic activity (%)” value in the data set with red blood cells is given as 0%; with red blood cells (listed as Evernic acid) it was “no hemolytic activity”; in the data set with red blood cells (listed as evernic acid), “no effect at all”. The “Anti-biofilm activity MBIC50” value in data set [3] (48 h of treatment, 24-h-old biofilm) stood at 12.5 µg/mL. For the same compound, the “Growth inhibition of HeLa cells (% inhibition)” value is recorded as 22.2 ± 2.8% in data set [4] (at 6.125 µg/ml) and “more than 70%” in data set [4] (at 100 µg/ml). In data set [4] (at the lowest tested / minimal active concentration (12.5 or 6.25 µg/ml)), the “Inhibition of HeLa cell growth” value was found to be 22%.
In the case of `COc1cc(C)c(C(=O)Oc2cc(C)c(C(=O)O)c(O)c2C)c(O)c1C(=O)O` [Compound 2, Squamatic acid], the IC50 was 50 µg/mL and 128 µM in data set [1] (setting [5]); 12.5 µg/mL and 32 µM in data set [1] (setting [6]); > 200 µg/mL in data set [3] (setting [7]); > 200 µg/mL in data set [3] (setting [8]). The “Hemolytic activity (%)” value in the data set with red blood cells was found to be 0.4 ± 0.01%. For the same compound, in data set [4] (at 12.5 µg/ml), the “Growth inhibition of HeLa cells (% inhibition)” value is listed as 14.8 ± 1.6%.
With `COc1cc(C)c(C(=O)Oc2c(C)c(C(=O)O)c(O)c(C=O)c2O)c(O)c1C(=O)O` [Compound 3, thamnolic acid], the IC50 in data set [1] (setting [5]) was 50 µg/mL and 120 µM; in data set [1] (setting [6]), 12.5 µg/mL and 30 µM; in data set [3] (setting [7]) it was > 200 µg/mL; in data set [3] (setting [8]), > 200 µg/mL. The “Hemolytic activity (%)” value in the data set on red blood cells turned out to be 4.0 ± 0.02%. Besides, in data set [4] (at 12.5 µg/ml), the “Growth inhibition of HeLa cells (% inhibition)” value was 11.0 ± 0.9%.
As for `COC(=O)c1c(C)cc(OC(=O)c2c(C)cc(O)c(C=O)c2O)c(C)c1O` [Compound 4, atranorin], the IC50 in data set [1] (incubation time not stated, read-out: MMIC50 (anti-maturation IC50)) is ≥ 100 µg/mL; in data set [1] (setting [5]), > 200 µg/mL; in data set [1] (setting [6]), > 200 µg/mL; in data set [3] (setting [7]), > 200 µg/mL; in data set [3] (setting [8]), > 200 µg/mL. In addition, the “Hemolytic activity (%)” value in the data set with red blood cells was determined as 0%. Also, the “Growth inhibition of HeLa cells (% inhibition)” value in data set [4] (at 100 µg/ml) was 84.5 ± 6.8%.
`Cc1cc(OC(=O)c2c(C)cc(OC(=O)c3c(C)cc(O)cc3O)cc2O)cc(O)c1C(=O)O` [Compound 5, gyrophoric acid]: the IC50 in data set [1] (setting [5]) was > 200 µg/mL; in data set [1] (setting [6]) it was 100 µg/mL (≈ 213 µM); in data set [3] (setting [7]) it was > 200 µg/mL; in data set [3] (setting [8]), > 200 µg/mL. Besides, in the data set with red blood cells, the “Hemolytic activity (%)” value turned out to be 0.5 ± 0.27%. Further, the “Growth inhibition of HeLa cells (% inhibition)” value in data set [4] (at 100 µg/ml) was 70.0 ± 2.3%.
In the case of `Cc1cc(O)c(C=O)c2c1C(=O)Oc1c(C)c(O)c3c(c1O2)C(O)OC3=O` (centres unmarked) [Compound 6, norstictic acid], the IC50 in data set [1] (setting [5]), in data set [1] (setting [6]), in data set [3] (setting [7]) and in data set [3] (setting [8]) was > 200 µg/mL throughout.
Consider `Cc1cc(O)c(C=O)c2c1C(=O)Oc1c(CO)c(O)c3c(c1O2)[C@@H](O)OC3=O` [Compound 7, salazinic acid], for which the IC50 in data set [3] (setting [7]) and in data set [3] (setting [8]) was > 200 µg/mL in each case.
On to `COc1cc(C)c2c(c1C=O)Oc1c(c(C)c(O)c3c1C(O)OC3=O)OC2=O` (centres unmarked) [Compound 8, stictic acid], for which the IC50 is 200 µg/mL (≈ 518 µM) in data set [1] (setting [5]), 200 µg/mL (≈ 518 µM) in data set [1] (setting [6]), > 200 µg/mL in data set [3] (setting [7]) and > 200 µg/mL in data set [3] (setting [8]).
In the case of `CCCCCC(=O)Cc1cc(O)cc2c1C(=O)Oc1cc(O)c(C(=O)O)c(CCCCC)c1O2` [Compound 9, physodic acid], the IC50 in data set [1] (setting [5]), in data set [1] (setting [6]), in data set [3] (setting [7]) and in data set [3] (setting [8]) was > 200 µg/mL in each case.
Consider `CCCCCC(=O)Cc1cc(O)c(O)c2c1C(=O)Oc1cc(O)c(C(=O)O)c(CCCCC)c1O2` [Compound 10, 3-hydroxyphysodic acid], for which the IC50 was > 200 µg/mL in data set [1] (setting [5]), 100 µg/mL (≈ 206 µM) in data set [1] (setting [6]), > 200 µg/mL in data set [3] (setting [7]) and 100 µg/mL in data set [3] (setting [8]).
